In patent US6747052B2, “Substituted indole-2-carboxylic acid benzylidene-hydrazides and analogs as activators of caspases and inducers of apoptosis and the use thereof” (Cytovia, Inc., priority 2000, dated 2004):
Entries after “also recorded” stand apart in the source; their conditions may differ. Where two headings read alike, the source gives them in different places.

Columns and labels:
T-47D [1] = test: Caspase cascade activation (N-(Ac-DEVD)-N'-ethoxycarbonyl-R110 fluorogenic substrate) in T-47D cells; assay type: cell-based, Human; conditions: 24 h incubation with compound; for Caspase activity Ratio (net RFU of test compound to control): 3 h substrate reading; for EC50: Homo sapiens, T47D
Experimental: (§1) Human breast cancer cell lines T-47D and ZR-75-1 were grown according to media component mixtures designated by American Type Culture Collection +10% FCS (Invitrogen Corporation, Life Technologies division), in a 5% CO2-95% humidity incubator at 37° C. T-47D and ZR-75-1 cells were maintained at a cell density between 30 and 80% confluency at a cell density of 0.1 to 0.6×10^6 cells/ml. Cells were harvested at 600×g and resuspended at 0.65×10^6 cells/ml into appropriate media +10% FCS. An aliquot of 45 μl of cells was added to a well of a 96-well microtiter plate containing 5 μl of a 10% DMSO in RPMI-1640 media solution containing 0.16 to 100 μM of 5-chloro-3-methyl-indole-2-carboxylic acid (4-nitrobenzylidene)-hydrazide (Compound A) or other test compound (0.016 to 10 μM final). An aliquot of 45 μl of cells was added to a well of a 96-well microtiter plate containing 5 μl of a 10% DMSO in RPMI-1640 media solution without test compound as the control sample. The samples were mixed by agitation and then incubated at 37° C. for 24 h in a 5% CO2-95% humidity incubator. After incubation, the samples were removed from the incubator and 50 μl of a solution containing 20 μM of N-(Ac-DEVD)-N′-ethoxycarbonyl-R110 fluorogenic substrate (Cytovia, Inc.; WO99/18856), 20% sucrose (Sigma), 20 mM DTT (Sigma), 200 mM NaCl (Sigma), 40 mM Na PIPES buffer pH 7.2 (Sigma), and 500 μg/ml lysolecithin (Calbiochem) was added. The samples were mixed by agitation and incubated at room temperature. Using a fluorescent plate reader (Model 1420 Wallac Instruments), an initial reading (T=0) was made approximately 1-2 min after addition of the substrate solution, employing excitation at 485 nm and emission at 530 nm, to determine the background fluorescence of the control sample. After the 3 h incubation, the samples were read for fluorescence as above (T=3 h).
(§2) The Relative Fluorescence Unit values (RFU) were used to calculate the sample readings as follows: RFU(T=3h)−Control RFU(T=0)=Net RFU(T=3h)
(§3) The activity of caspase cascade activation was determined by the ratio of the net RFU value for 5-chloro-3-methyl-indole-2-carboxylic acid (4-nitrobenzylidene)-hydrazide (Compound A) or other test compound to that of control samples. The EC50 (nM) was determined by a sigmoidal dose-response calculation (Prism 2.0, GraphPad Software Inc.).

ZR-75-1 [2] = test: Caspase cascade activation (N-(Ac-DEVD)-N'-ethoxycarbonyl-R110 fluorogenic substrate) in ZR-75-1 cells; assay type: cell-based, Human; conditions: ZR-75-1, 24 h incubation with compound; for EC50: Homo sapiens; for Caspase activity Ratio (net RFU of test compound to control): 3 h substrate reading
Experimental: as §1, §2, §3

T-47D [3] = test: Inhibition of cell proliferation (GI50, CellTiter 96 AQueous One) in T-47D cells; assay type: cell-based; conditions: Homo sapiens, T47D, 48 h, read-out: GI50 (dose for 50% inhibition of cell proliferation)
Experimental: (§4) T-47D and ZR-75-1 cells were grown and harvested as in Example 1. An aliquot of 90 μl of cells (2.2×10^4 cells/ml) was added to a well of a 96-well microtiter plate containing 10 μl of a 10% DMSO in RPMI-1640 media solution containing 1 nM to 100 μM of 5-chloro-3-methyl-indole-2-carboxylic acid (4-nitrobenzylidene)-hydrazide (Compound A) or 5-chloro-3-phenyl-indole-2-carboxylic acid (4-nitrobenzylidene)-hydrazide (Compound B) (0.1 nM to 10 μM final). An aliquot of 90 μl of cells was added to a well of a 96-well microtiter plate containing 10 μl of a 10% DMSO in RPMI-1640 media solution without compound as the control sample for maximal cell proliferation (AMax). The samples were mixed by agitation and then incubated at 37° C. for 48 h in a 5% CO2-95% humidity incubator. […] Using an absorbance plate reader (Model 1420 Wallac Instruments), an initial reading (T=0) was made approximately 1-2 min after addition of the solution, employing absorbance at 490 nm. This determines the possible background absorbance of the test compounds. No absorbance for 5-chloro-3-methyl-indole-2-carboxylic acid (4-nitrobenzylidene)-hydrazide or 5-chloro-3-phenyl-indole-2-carboxylic acid (4-nitrobenzylidene)-hydrazide was found at 490 nm. After the 2-4 h incubation, the samples were read for absorbance as above (ATest). […]

ZR-75-1 [4] = test: Inhibition of cell proliferation (GI50, CellTiter 96 AQueous One) in ZR-75-1 cells; assay type: cell-based; conditions: Homo sapiens, ZR-75-1, 48 h; read-out: GI50 (dose for 50% inhibition of cell proliferation)
Experimental: as §4

Jurkat cells [5] = test: Nuclear fragmentation in Jurkat cells (Syto16 staining); assay type: cell-based; conditions: 5 μM, 24 h
Experimental: The ability of 5-chloro-3-methyl-indole-2-carboxylic acid (4-nitrobenzylidene)-hydrazide to induce nuclear fragmentation, an indicator of apoptosis, was tested by treatment of Jurkat cells with the test compound followed by staining of the nucleus with Syto16, a fluorescent DNA dye (Molecular Probes, Eugene, Oreg.). The nuclei of Jurkat cells treated with vehicle control (DMSO) are seen to be round with dispersed chromatin that is moderately stained with Syto16 (FIG. 1A).

Jurkat cells [6] = test: Mitotic arrest in Jurkat cells (mitotic figures, Syto 16); assay type: cell-based; conditions: Homo sapiens, 6 h
Experimental: Jurkat cells were incubated with a range of concentrations of 5-chloro-3-methyl-indole-2-carboxylic acid (4-nitrobenzylidene)-hydrazide (0.02 μM to 5 μM) for 6 h under normal growth conditions; control cultures were treated with DMSO vehicle. The cells were then treated for 20 min. with 800 nM Syto 16 (Molecular Probes, Eugene, Oreg.). Cytospin preparations were then prepared and the samples were viewed by fluorescent microscopy using a fluorescein filter set. For each concentration of test compound, the number of mitotic figures were counted and expressed as a percentage of the total number of cells. Three fields from each condition were evaluated and the mean and SEM were calculated and plotted as a function of drug concentration (FIG. 2).

T47D cells = test: Cell cycle arrest and apoptosis in T47D cells (propidium iodide flow cytometry); assay type: cell-based, Human; conditions: 10 μM, 48 h
Experimental: T47D, a breast cancer cell line, was maintained and harvested as described in Example 1. 1×10^6 Cells were treated with 10 μM of 5-chloro-3-methyl-indole-2-carboxylic acid (4-nitrobenzylidene)-hydrazide for 48 h at 37° C. As a control, cells were also incubated with equivalent amount of solvent (DMSO). Cells were harvested at 1,200 rpm and washed twice with 5 mM EDTA/PBS. Cells were then resuspended in 300 μl EDTA/PBS and 700 μl of 100% ethanol, vortexed and incubated at room temperature for 1 h. Samples were spun down at 1,200 rpm for 5 min and the supernatant was removed. A solution containing 100 μg/ml of propidium iodide and 1 mg/ml of RNAse A (fresh) was added to the samples and incubated for 1 h at room temperature. Samples were then transferred to 12×75 mm polystyrene tubes and analyzed on a flow cytometer. All flow cytometry analyses were performed on FACScalibur (Becton Dickinson) using Cell Quest analysis software. The x-axis plotted the amount of fluorescence and the y-axis is plotted the number of cells with the indicated fluorescence. […] An increase in the sub-diploid DNA content of cells (marker M1 region, FIG. 3) is also seen to increase from 2% to 25% with compound treatment. The sub-diploid amount of DNA (M1) is indicative of apoptotic cells which have undergone DNA degradation or fragmentation.

HeLa cells = test: Clonogenic survival of HeLa cells; assay type: cell-based; conditions: for IC50: Homo sapiens
Experimental: HeLa cells were grown according to media component mixtures designated by American Type Culture Collection +10% FCS (Invitrogen Corporation, Life Technologies division), in a 5% CO2-95% humidity incubator at 37° C. In a well of a 96 well plate, 30,000 cells were seeded and treated with testing compound at the indicated concentrations for 48 hr in a 5% CO2-95% humidity incubator at 37° C. Control wells were treated with the same amount of solvent (DMSO) as the compound samples. After the indicated treatment time, the supernatant was removed to a sterile culture tube and the wells washed with phosphate buffered saline, and the adherent cells trypsinized for 5 min. The trypsinzed cells were added to the culture supernatant, cells were collected (1,200 rpm, 10 min), washed with phosphate buffered saline, and resupended in fresh media. The cells were counted for trypan blue negative cells, and the cells diluted with fresh media to 1,000 cells/ml. To a well of a 24-well plate, 0.1 ml of the cell suspension was added along with 1 ml of fresh media (cell suspensions were passed through a 22G needle several times just before plating to form single cell suspensions). Plates are incubated in a 5% CO2-95% humidity incubator at 37° C. for 5-7 days. Colonies are counted when the sizes reached greater than 50 cells per colony. Cells are washed with phosphate buffered saline, fixed with 100% methanol for 15 min, and then stained with 0.5% gentian violet for 15 min. Colonies are rinsed with water and the colonies counted and the fraction surviving expressed as the percentage of the number of control colonies.

[7] = 48 hr treatment, read-out: IC50 of colony forming ability
[8] = 48 h treatment, FIG. 4 legend, read-out: IC50 of colony formation

Row | EC50 (T-47D [1]) [nM] | EC50 (ZR-75-1 [2]) [nM] | GI50 (T-47D [3]) [nM] | EC50 (Jurkat cells [6]) [nM] | SMILES | Caspase activity Ratio (net RFU of test compound to control) (T-47D [1]) | Caspase activity Ratio (net RFU of test compound to control) (ZR-75-1 [2]) | GI50 (ZR-75-1 [4]) [nM] | Nuclear morphology (nuclear fragmentation) (Jurkat cells [5]) | G2/M DNA content (M4) of cells (T47D cells) | Sub-diploid DNA content of cells (M1) (T47D cells; control 2%) [%] | IC50 (HeLa cells; [7]) [nM] | IC50 (HeLa cells; [8]) [nM] | Increase in potency in clonogenic survival assay versus Compound A (HeLa cells; 48 hr treatment) [fold]
1 | 2000 | 532 | 2000 | ~800 | Cc1c(C(=O)NN=Cc2ccc([N+](=O)[O-])cc2)[nH]c2ccc(Cl)cc12 [Compound A, 5-chloro-3-methyl-indole-2-carboxylic acid (4-nitrobenzylidene)-hydrazide] | 6.9 | 7.0 | 12000 | shrunken and fragmented nuclei | increase in G2/M DNA content; also recorded: an increase in the G2/M (M4) | 25 | ~3000 | ~3000 | 
2 | 501 | 276 | 100 |  | O=C(NN=Cc1ccc([N+](=O)[O-])cc1)c1[nH]c2ccc(Cl)cc2c1-c1ccccc1 [Compound B, 5-chloro-3-phenyl-indole-2-carboxylic acid (4-nitrobenzylidene)-hydrazide] | 3 | 2.9 |  |  |  |  | ~300 | ~300 | 10
3 | 253 | 187 |  |  | Cc1ccc(C=NNC(=O)c2[nH]c3ccc(Cl)cc3c2C)cc1 [Example 1, 5-Chloro-3-methyl-indole-2-carboxylic Acid (4-Methylbenzylidene)-hydrazide] | 3.7 | 2.6 |  |  |  |  |  |  | 
4 | 4280 | 1490 |  |  | Cc1c(C(=O)NN=Cc2ccccc2)[nH]c2ccc(Cl)cc12 [Example 2, 5-Chloro-3-methyl-indole-2-carboxylic Acid (Benzylidene)-hydrazide] | 5.1 | 4.1 |  |  |  |  |  |  | 
5 | 939 | 449 |  |  | Cc1c(C(=O)NN=Cc2ccc(N(C)C)cc2)[nH]c2ccc(Cl)cc12 [Example 3, 5-Chloro-3-methyl-indole-2-carboxylic Acid (4-Dimethylaminobenzylidene)-hydrazide] | 6.0 | 7.2 |  |  |  |  |  |  | 
6 | 300 | 100 |  |  | Cc1ccc(C=NNC(=O)c2[nH]c3ccc(C)cc3c2-c2ccccc2)cc1 [Example 13, 5-Methyl-3-phenyl-indole-2-carboxylic Acid (4-Methylbenzylidene)-hydrazide] | 3.1 | 7.6 |  |  |  |  |  |  | 
7 | 2400 | 830 |  |  | Cc1ccc2[nH]c(C(=O)NN=Cc3ccc(N(C)C)cc3)c(-c3ccccc3)c2c1 [Example 14, 5-Methyl-3-phenyl-indole-2-carboxylic Acid (4-Dimethylaminobenzylidene)-hydrazide] | 3.5 | 4.1 |  |  |  |  |  |  | 
8 | 3650 | 2770 |  |  | Cc1c(C(=O)NN=Cc2ccc(Cl)cc2)[nH]c2ccc(Cl)cc12 [Example 21, 5-Chloro-3-methyl-indole-2-carboxylic Acid (4-Chlorobenzylidene)-hydrazide] | 4.2 | 3.5 |  |  |  |  |  |  | 
